Results: paper PMC10974995 (Pathogens, 2024)
Converted amounts (≈) assume the structure as drawn. Where two headings read alike, the source gives them in different places.

What was measured:
boar sperm [1] = test system: boar sperm
[2] = test system: PK-15 (porcine kidney epithelial cells) and/or FFL (feline fetus lung cells)
boar sperm [3] = test: cells
[4] = test system: PK-15 (porcine kidney epithelial cells) and/or FFL (feline fetus lung cells); test: cells; conditions: Sus scrofa
Rat = conditions: po; cited from earlier work
[5] = test system: differentiated PK-15 cells
Fish = conditions: cited from earlier work
[6] = test system: differentiated PK-15 cells; test: cells; conditions: Sus scrofa, PK-15, read-out: Mitochondrial Toxicity 1d (EC50, acceleration of glycolysis and depolarization of mitochondria)
[7] = 72 h, read-out: EC50 Ex Vivo BSMI 1–3d
[8] = read-out: EC50 Ex Vivo BSMI, positive controls, mean of 10 or 11 measurements
[9] = PK-15, 48 h, read-out: EC50 In Vitro ICP 2d
[10] = PK-15, read-out: EC50 In Vitro ICP, positive controls, mean of 10 or 11 measurements

| Compound | Ex Vivo BSMI 1–3d, toxic (+) / nontoxic (−), microbial metabolites (boar sperm [1]; pig (boar)) | In Vitro ICP 2d, toxic (+) / nontoxic (−), microbial metabolites [2] | EC50 (boar sperm [3]; [7]) | EC50 [4, 9] | In Vivo (toxicity to experimental animals), mycotoxins and fungal metabolites (Rat) | Toxicity In Vivo LD50 Rat p.o. (Rat) | EC50 Ex Vivo BSMI 1–3d (boar sperm [1]) | EC50 In Vitro ICP 2d [2] | also measured |
| --- | --- | --- | --- | --- | --- | --- | --- | --- | --- |
| CC1=C2C(=CO[C@H](C)[C@H]2C)C(O)=C(C(=O)O)C1=O [Citrinin] | (−) 20 | (+) 10 (key: (+): For the microbial metabolites, EC50 < 5 µg mL^−1 and <10 µg mL^−1 were considered as toxic in the BSMI and ICP assays, respectively; nontoxic as (−)) | 20 µg/mL (≈ 79.9 µM) | 10 µg/mL (≈ 40 µM) | + (key: LD50 rat p.o. <1000 mg kg ^–1 Classified as Toxic in vivo +.) | 105 mg/kg |  |  | EC50 (boar sperm [3]; [8]): ≥ 20 µg/mL; EC50 [4, 10]: 13 µg/mL (≈ 51.9 µM) |
| Polyethyleneglycol monalkyl ether [Genapol X 080] |  |  |  |  |  | >2000 mg/kg | (+) 3 μg mL^–1 | (−) 30 μg mL^–1 | Ex Vivo BSMI 1–3d, toxic (+) / nontoxic (−), xenobiotic chemicals (boar sperm [1]): (+) 3 (key: (+): For the xenobiotic chemicals, EC50 values < 10 µg mL^−1 and <20 µg mL^−1 were considered as toxic in the BSMI assay and in the ICP assay, respectively; nontoxic as (−)); In Vitro ICP 2d, toxic (+) / nontoxic (−), xenobiotic chemicals [2]: (−) 30; Mitochondrial Toxicity 1d (EC50, acceleration of glycolysis and depolarization of mitochondria) [5]: (+) 5 μg mL^–1; Mitochondrial toxicity after testing with somatic cells [5]: Mitochondrial toxicity was recorded; In Vivo (toxicity to experimental animals), xenobiotic chemicals (Fish): + (key: LD50 Fish Inhaled <10 μg mL ^–1 = Toxic in vivo Marked as +.); Toxicity In Vivo LD50 Fish (Fish): 5 mg/L |
| CC(C)[C@H]1C(=O)O[C@H](C(C)C)C(=O)N(C)[C@@H](C(C)C)C(=O)O[C@H](C(C)C)C(=O)N(C)[C@@H](C(C)C)C(=O)O[C@H](C(C)C)C(=O)N1C [Enniatin B] | (+) 0.5 (key: (+): For the microbial metabolites, EC50 < 5 µg mL^−1 and <10 µg mL^−1 were considered as toxic in the BSMI and ICP assays, respectively; nontoxic as (−)) | (−) 15 | 0.5 µg/mL (≈ 0.781 µM) | 15 µg/mL (≈ 23.4 µM) | + (key: LD50 rat p.o. <1000 mg kg ^–1 Classified as Toxic in vivo +.) | 350 mg/kg |  |  | EC50 (boar sperm [3]; [8]): 0.6 µg/mL (≈ 0.938 µM); EC50 [4, 10]: 18 µg/mL (≈ 28.1 µM); EC50 [6]: 2 µg/mL (≈ 3.13 µM) |
| CC(C)=C[C@H]1C[C@H](C)[C@]2(CC[C@]3(C)C[C@H]4[C@H](C(=O)C[C@@]4(C)O)/C(C=O)=C\C[C@H]32)O1 [Ophiobolin, Ophiobolin A] | (+) 0.3 (key: (+): For the microbial metabolites, EC50 < 5 µg mL^−1 and <10 µg mL^−1 were considered as toxic in the BSMI and ICP assays, respectively; nontoxic as (−)) | (+) 0.1 (key: (+): For the microbial metabolites, EC50 < 5 µg mL^−1 and <10 µg mL^−1 were considered as toxic in the BSMI and ICP assays, respectively; nontoxic as (−)) | 0.3 µg/mL (≈ 0.749 µM) | 0.1 µg/mL (≈ 0.25 µM) | + (key: LD50 rat p.o. <1000 mg kg ^–1 Classified as Toxic in vivo +.) | 238 mg/kg |  |  |  |
| Acrebol |  | (−) >10 |  |  |  |  | (+) 0.1 μg mL^–1 | (−) >10 μg mL^–1 | Ex Vivo BSMI 1–3d, toxic (+) / nontoxic (−), microbial metabolites (boar sperm [1]): (+) 0.1 (key: (+): For the microbial metabolites, EC50 < 5 µg mL^−1 and <10 µg mL^−1 were considered as toxic in the BSMI and ICP assays, respectively; nontoxic as (−)); Mitochondrial Toxicity 1d (EC50, acceleration of glycolysis and depolarization of mitochondria) [5]: (+) 0.1 μg mL^–1 |
| CC1(C)C=Cc2c(ccc3c2[N+]([O-])=C2C(C)(C)[C@@H]4CC56CCCN5C(=O)[C@]4(NC6=O)[C@H]4N5C(=O)[C@@]67CCCN6C(=O)[C@@]56[C@H](c5c(n(O)c8c9c(ccc58)OC(C)(C)C=C9)C(C)(C)[C@@H]6C7)[C@]234)O1 [Stephacidin B] |  |  |  |  |  |  | (+) 0.3 μg mL^–1 | (++) 0.3 μg mL^–1 | Ex Vivo BSMI 1–3d, toxic (+) / nontoxic (−), microbial metabolites (boar sperm [1]): (+) 0.3 (key: (+): For the microbial metabolites, EC50 < 5 µg mL^−1 and <10 µg mL^−1 were considered as toxic in the BSMI and ICP assays, respectively; nontoxic as (−)) |
| CC1(C)C=Cc2c(ccc3c2[N+]([O-])=C2C3=C[C@@]34NC(=O)[C@]5(CCCN5C3=O)C[C@H]4C2(C)C)O1 [Avrainvillamide] | (+) 0.2 (key: (+): For the microbial metabolites, EC50 < 5 µg mL^−1 and <10 µg mL^−1 were considered as toxic in the BSMI and ICP assays, respectively; nontoxic as (−)) | (+) 0.2 (key: (+): For the microbial metabolites, EC50 < 5 µg mL^−1 and <10 µg mL^−1 were considered as toxic in the BSMI and ICP assays, respectively; nontoxic as (−)) | 0.2 µg/mL (≈ 0.449 µM) | 0.2 µg/mL (≈ 0.449 µM) |  |  |  |  |  |
| CC(C)[C@@H]1NC(=O)[C@H](C)OC(=O)[C@@H](C(C)C)NC(=O)[C@@H](C(C)C)OC(=O)[C@H](C(C)C)NC(=O)[C@H](C)OC(=O)[C@@H](C(C)C)NC(=O)[C@@H](C(C)C)OC(=O)[C@H](C(C)C)NC(=O)[C@H](C)OC(=O)[C@@H](C(C)C)NC(=O)[C@@H](C(C)C)OC1=O [Valinomycin] |  |  |  |  |  | 4 mg/kg |  |  |  |
| Polyethylene glycol sorbitan mono oleate [Tween 80] |  |  |  |  |  | >25,000 mg kg^−1 | (+) 10 μg mL^–1 |  | Ex Vivo BSMI 1–3d, toxic (+) / nontoxic (−), xenobiotic chemicals (boar sperm [1]): (+) 10 (key: (+): For the xenobiotic chemicals, EC50 values < 10 µg mL^−1 and <20 µg mL^−1 were considered as toxic in the BSMI assay and in the ICP assay, respectively; nontoxic as (−)); Response in the BSMI assay (boar sperm [1]): weak positive response; In Vitro ICP 2d, toxic (+) / nontoxic (−), xenobiotic chemicals [2]: (−) 500; In Vivo (toxicity to experimental animals), xenobiotic chemicals (Fish): − |
| C/C1=C\[C@@H](C)C/C=C/[C@H]2[C@@H]3O[C@]3(C)[C@@H](C)[C@H]3[C@H](Cc4c[nH]c5ccccc45)NC(=O)[C@]32C(=O)/C=C/C(=O)[C@@H]1O [Chaetoglobosin A] | (+) <1 (key: (+): For the microbial metabolites, EC50 < 5 µg mL^−1 and <10 µg mL^−1 were considered as toxic in the BSMI and ICP assays, respectively; nontoxic as (−)) | (+) 3 (key: (+): For the microbial metabolites, EC50 < 5 µg mL^−1 and <10 µg mL^−1 were considered as toxic in the BSMI and ICP assays, respectively; nontoxic as (−)) | < 1 µg/mL | 3 µg/mL (≈ 5.67 µM) | + (key: LD50 rat p.o. <1000 mg kg ^–1 Classified as Toxic in vivo +.) | >400 mg/kg |  |  |  |
| Polyethyleneglycol-p-is-octylphenyl ether [Triton X –100] |  |  |  |  |  | 500 mg/kg | (+) 1 μg mL^–1 | (−) 30 μg mL^–1 | Ex Vivo BSMI 1–3d, toxic (+) / nontoxic (−), xenobiotic chemicals (boar sperm [1]): (+) 1 (key: (+): For the xenobiotic chemicals, EC50 values < 10 µg mL^−1 and <20 µg mL^−1 were considered as toxic in the BSMI assay and in the ICP assay, respectively; nontoxic as (−)); In Vitro ICP 2d, toxic (+) / nontoxic (−), xenobiotic chemicals [2]: (−) 30; In Vivo (toxicity to experimental animals), xenobiotic chemicals (Fish): + (key: LD50 Fish Inhaled <10 μg mL ^–1 = Toxic in vivo Marked as +.); Toxicity In Vivo LD50 Fish (Fish): 5 mg/L |
| COc1cc2c(c3oc4cccc(O)c4c(=O)c13)[C@@H]1C=CO[C@@H]1O2 [Sterigmatocystin] | (−)>20 | (+) 0.1 (key: (+): For the microbial metabolites, EC50 < 5 µg mL^−1 and <10 µg mL^−1 were considered as toxic in the BSMI and ICP assays, respectively; nontoxic as (−)) |  |  | + (key: LD50 rat p.o. <1000 mg kg ^–1 Classified as Toxic in vivo +.) |  | (−)>20 μg mL^–1 | (+) 0.1 μg mL^–1 |  |
| O=c1cc(O)c1=O [Moniliformin] |  | (−) >20 |  |  | + (key: LD50 rat p.o. <1000 mg kg ^–1 Classified as Toxic in vivo +.) | 50 mg/kg | (+) 2 μg mL^–1 | (−) >20 μg mL^–1 | Ex Vivo BSMI 1–3d, toxic (+) / nontoxic (−), microbial metabolites (boar sperm [1]): (+) 2 (key: (+): For the microbial metabolites, EC50 < 5 µg mL^−1 and <10 µg mL^−1 were considered as toxic in the BSMI and ICP assays, respectively; nontoxic as (−)); Mitochondrial Toxicity 1d (EC50, acceleration of glycolysis and depolarization of mitochondria) [5]: (+) 2 μg mL^–1 |
| Cc1cc(O)c2c(c1)C(=O)c1cc(O)cc(O)c1C2=O [Emodin] | (+) 4 (key: (+): For the microbial metabolites, EC50 < 5 µg mL^−1 and <10 µg mL^−1 were considered as toxic in the BSMI and ICP assays, respectively; nontoxic as (−)) | (−) 45 | 4 µg/mL (≈ 14.8 µM) | 45 µg/mL (≈ 167 µM) |  | 1000 mg/kg |  |  | EC50 [6]: 3 µg/mL (≈ 11.1 µM) |
| CCCCCCCCCCCCOS(=O)(=O)[O-].[Na+] [SDS, Sodium dodecyl sulfate] |  |  |  |  |  | 1288 mg/kg | (+) 10 μg mL^–1 | (−) 120 μg mL^–1 | Ex Vivo BSMI 1–3d, toxic (+) / nontoxic (−), xenobiotic chemicals (boar sperm [1]): (+) 10 (key: (+): For the xenobiotic chemicals, EC50 values < 10 µg mL^−1 and <20 µg mL^−1 were considered as toxic in the BSMI assay and in the ICP assay, respectively; nontoxic as (−)); In Vitro ICP 2d, toxic (+) / nontoxic (−), xenobiotic chemicals [2]: (−) 120; In Vivo (toxicity to experimental animals), xenobiotic chemicals (Fish): + (key: LD50 Fish Inhaled <10 μg mL ^–1 = Toxic in vivo Marked as +.); Toxicity In Vivo LD50 Fish (Fish): 30 mg/L |
